Key:
[1] = system: mut-mt (RNA, rRNA) GGCGUCACCCUCCUC/GAGGAGGCAAGUCGCC; assay: fluorescence titration; conditions: 150 mM NaCl, 3 mM Na2EDTA; apparent; 10 mM HEPES pH 7.4; 1 μM RNA
[2] = system: wt-mt (RNA, rRNA) GGCGUCACCCUCCUC/GAGGAGACAAGUCGCC; assay: fluorescence titration; conditions: 150 mM NaCl, 3 mM Na2EDTA; apparent; 10 mM HEPES pH 7.4; 1 μM RNA

Kd [1] | Kd [2] | Structure (SMILES)
5.8 ± 1.8 µM | 26.9 ± 4.7 µM | CCC[C@H]1[C@H](O)[C@@H](N)[C@@H](O[C@H]2[C@H](O[C@@H]3O[C@H](CO)[C@@H](O[C@H]4O[C@@H](CN)[C@@H](O)[C@H](O)[C@H]4N)[C@H]3O)[C@@H](O)[C@H](N)C[C@@H]2N)O[C@@H]1CO
8.6 ± 2.1 µM | 12.8 ± 2.8 µM | CCO[C@H]1[C@H](O)[C@@H](N)[C@@H](O[C@H]2[C@H](O[C@@H]3O[C@H](CO)[C@@H](O[C@H]4O[C@@H](CN)[C@@H](O)[C@H](O)[C@H]4N)[C@H]3O)[C@@H](O)[C@H](N)C[C@@H]2N)O[C@@H]1CO
0.1 ± 0.02 µM | 1.1 ± 0.5 µM | NC[C@@H]1O[C@H](O[C@H]2[C@@H](O)[C@H](O[C@@H]3[C@@H](O)[C@H](N)C[C@H](N)[C@H]3O[C@H]3O[C@H](CN)[C@@H](O)[C@H](O)[C@H]3N)O[C@@H]2CO)[C@H](N)[C@@H](O)[C@@H]1O
2.8 ± 0.5 µM | 6.5 ± 0.9 µM | NC[C@@H]1O[C@H](O[C@H]2[C@@H](O)[C@H](O[C@@H]3[C@@H](O)[C@H](N)C[C@H](N)[C@H]3O[C@H]3O[C@H](CO)[C@@H](O)[C@H](O)[C@H]3N)O[C@@H]2CO)[C@H](N)[C@@H](O)[C@@H]1O
